Literature values, collected in patent US9040672B2, “Devices and methods for reducing matrix effects” (Agilent Technologies, Inc., priority 2007, dated 2015).

Conditions: octanol-water partition coefficient

| SMILES | Log P |
| --- | --- |
| NC(=O)N1c2ccccc2C=Cc2ccccc21 [carbamazepine] | 2.69 |
| CC[C@@H]([C@H](C)O)n1ncn(-c2ccc(N3CCN(c4ccc(OC[C@@H]5CO[C@@](Cn6cncn6)(c6ccc(F)cc6F)C5)cc4)CC3)cc2)c1=O [posaconazole] | 5.66 |
